One data set has as its system advanced solid tumors. As to the kind of experiment: Compound 1 followed by carboplatin IV every 3 weeks in patients with advanced cancer (Example 1). On the procedure:
Compound 1 followed by carboplatin was given intravenously every 3 weeks to patients with advanced solid tumors treated with ≦2 prior chemotherapy regimens. Pharmacokinetics of both drugs were measured on the first course. Twenty-five (25) patients were treated at four dose levels—combining Compound 1 (30 or 40 mg/m^2) with […] or AUC 5 or 6 (Calvert formula; Calvert et al., J. Clin. Oncol., 1989, 7, 1748–1756) of carboplatin. A total of 91 courses were given.

The next data set has as its system advanced cancer. As to the kind of experiment: Phase I study of Compound 1 in combination with carboplatin in patients with advanced cancer, day 1 and split day 1/8 schedules (Example 2). The procedure:
Compound 1 was assessed in Phase I studies in combination with other chemotherapeutic agents. Compound 1 was given as a 60-minute infusion, 30 minutes prior to a 30-minute carboplatin infusion on day 1 every three weeks (or 21 days). Pharmacokinetic samples were taken during the first cycle. Twenty-five (25) patients were treated on this schedule at 4 dose levels (Compound 1 doses of 30 mg/m^2 or 40 mg/m^2 with carboplatin doses of […], or AUC 5 or 6).
A further 14 patients were recruited onto an amended schedule with Compound 1 doses being split and administered on days 1 and 8 every three weeks (or 21 days) and carboplatin being administered on day 1.

Data set [1] in a line: Compound 1 plasma levels (pharmacokinetic samples, first cycle) in Phase I combination study. Type of data set: in vivo, human. The following applies: patients, IV infusion, with carboplatin. The source says:
Pharmacokinetic samples were taken during the first cycle.

Data set [2] relates to paclitaxel-sensitive (A2780, HCT116 and LS174T) and paclitaxel-resistant human colon tumors (HCT116/VM46), ovarian carcinoma (Pat-7 and A2780Tax) and breast …. The data set is described as follows: Preclinical pharmacology studies, antitumor activity in tumor models. Type of data set: in vivo.

In general, half-life refers to the time needed for the level to fall by half in the phase considered.

SMILES strings stand for the structures.

`C/C(=C\c1csc(C)n1)[C@@H]1C[C@@H]2O[C@]2(C)CCC[C@H](C)[C@H](O)[C@@H](C)C(=O)C(C)(C)[C@@H](O)CC(=O)N1` (relative stereo) [Compound 1, [1S-1R*,3R*(E),7R*,10S*,11R*,12R*,16S*]]-7,11-dihydroxy-8,8,10,12,16-pentamethyl-3-[1-methyl-2-(2-methyl-4-thiazolyl)ethenyl]-4-aza-17-oxabicyclo[14.1.0]heptadecane-5,9-dione]: the confirmed partial responses with advanced solid tumors (Compound 1 30 or 40 mg/m^2 + carboplatin AUC 5 or 6, IV every 3 weeks, 25 patients, breast, neuroendocrine and unknown primary carcinomas) is listed as 3/25. The “patients with disease stabilization and clinical benefit from treatment” value in the data set with advanced solid tumors (Compound 1 + carboplatin every 3 weeks, 25 patients treated) is 12 patients. In addition, the “dose at which CTC grade 4 neutropenia was dose limiting” value in the data set on advanced solid tumors (human, in vivo) came to 40 mg/m^2. In the data set on advanced solid tumors (with carboplatin AUC 5 (Calvert formula), every 3 weeks), the “maximum tolerated dose of Compound 1” value came out at 40 mg/m^2. The “patients showing disease stabilization for more than two months” value in the data set with advanced cancer (Compound 1 + carboplatin) came to 48%. The major toxicities result in the data set with advanced cancer (Compound 1 + carboplatin, 39 patients over 7 dose levels) is “myelosuppression, myalgia and peripheral neuropathy”. Also, the partial responses with advanced cancer (Compound 1 + carboplatin, 39 patients, 2 breast, neuro-endocrine, unknown primary carcinomas and mesothelioma) amounted to 5 patients. In addition, in the data set on advanced cancer (Compound 1 on days 1 and 8 every three weeks with carboplatin AUC 6 on day 1), the “dose at which DLT was observed, split schedule” value stood at 25 mg/m^2. The “dose at which dose limiting toxicity (DLT) occurred” value in the data set with advanced cancer (Compound 1 day 1 every three weeks with carboplatin AUC 6, myelosuppression as major toxicity) amounted to 40 mg/m^2. In addition, the “patients who withdrew from the study because of study drug toxicity” value with advanced cancer (peripheral neuropathy reported in all these patients, 39 patients treated) is on record as “Eleven”. In addition, the half-life in data set [1] (human) is roughly 30 h. Besides, in data set [1], the “Cmax and AUC” value is given as “increase with dose”; the volume of distribution result was “high”. In addition, the oral efficacy result in data set [2] (oral administration, comparable to parenteral administration) is on record as “orally efficacious”. In addition, in data set [2] (paclitaxel-sensitive and paclitaxel-resistant tumor models), the antitumor activity result is “very impressive and broad spectrum of antitumor activity”.

(Values after patent US7008936B2, “Combination of epothilone analogs and chemotherapeutic agents for the treatment of proliferative diseases” (Bristol-Myers Squibb Company, priority 2002, dated 2006).)
